In PubChem BioAssay (NCI):
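GI50 marks 50% less growth. At the TGI there is no net growth.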

Tests used:
Assay in all cases: NCI-60 cell line screen, 384-well format
[1] = system: HOP-62 NSCLC
[2] = system: MDA-MB-231 breast
[3] = system: UO-31 renal
[4] = system: NCI-H23 lung
[5] = system: HL-60(TB) leukemia
[6] = system: NCI-H522 lung
[7] = system: BT-549 breast
[8] = system: SNB-75 CNS
[9] = system: HS 578T breast
[10] = system: SR leukemia
[11] = system: HCC-2998 colon
[12] = system: SN12C renal
[13] = system: NCI-H322M lung
[14] = system: SK-MEL-28 melanoma
[15] = system: KM12 colon
[16] = system: UACC-62 melanoma
[17] = system: U251 glioblastoma
[18] = system: SF-295 CNS
[19] = system: K-562 leukemia
[20] = system: A498 renal
[21] = system: COLO 205 colon
[22] = system: NCI-H226 lung
[23] = system: T-47D breast
[24] = system: SK-MEL-5 melanoma
[25] = system: RXF 393 renal
[26] = system: MDA-MB-435 melanoma
[27] = system: OVCAR-8 ovarian
[28] = system: M14 melanoma
[29] = system: HT29 colon
[30] = system: NCI/ADR-RES ovarian
[31] = system: LOX IMVI melanoma
[32] = system: SF-268 CNS
[33] = system: OVCAR-3 ovarian
[34] = system: OVCAR-4 ovarian
[35] = system: TK-10 renal
[36] = system: MALME-3M melanoma
[37] = system: CAKI-1 renal
[38] = system: MCF7 breast
[39] = system: ACHN renal
[40] = system: NCI-H460 NSCLC
[41] = system: HOP-92 NSCLC
[42] = system: SF-539 CNS
[43] = system: A549 NSCLC
[44] = system: SW-620 colon
[45] = system: SNB-19 CNS
[46] = system: UACC-257 melanoma
[47] = system: HCT-15 colon
[48] = system: MDA-MB-468 breast
[49] = system: HCT-116 colon
[50] = system: 786-0 renal
[51] = system: SK-OV-3 ovarian
[52] = system: EKVX NSCLC
[53] = system: RPMI-8226 leukemia
[54] = system: CCRF-CEM leukemia
[55] = system: DU-145 prostate
[56] = system: MOLT-4 leukemia

CCc1cc(C(N)=O)ccc1-n1nc(C(C)C)c2c(-n3cnc(-c4cnn(C)c4)c3)ccnc21
GI50 [1]: 584 nM
TGI [1]: > 100000 nM
GI50 [2]: 643 nM
TGI [2]: 6070 nM
GI50 [3]: 1130 nM
TGI [3]: > 100000 nM
GI50 [4]: 301 nM
TGI [4]: 873 nM
GI50 [5]: 189 nM
TGI [5]: 405 nM
GI50 [6]: 210 nM
TGI [6]: 458 nM
GI50 [7]: 651 nM
TGI [7]: 9960 nM
GI50 [8]: 402 nM
TGI [8]: 2020 nM
GI50 [9]: 418 nM
TGI [9]: 2230 nM
GI50 [10]: 169 nM
TGI [10]: 329 nM
GI50 [11]: 406 nM
TGI [11]: 1870 nM
GI50 [12]: 412 nM
TGI [12]: 2440 nM
GI50 [13]: 799 nM
TGI [13]: > 100000 nM
GI50 [14]: 387 nM
TGI [14]: 20000 nM
GI50 [15]: 374 nM
TGI [15]: > 100000 nM
GI50 [16]: 702 nM
TGI [16]: 3240 nM
GI50 [17]: 485 nM
TGI [17]: 3080 nM
GI50 [18]: 426 nM
TGI [18]: 1660 nM
GI50 [19]: 326 nM
TGI [19]: 3660 nM
GI50 [20]: 1110 nM
TGI [20]: > 100000 nM
GI50 [21]: 392 nM
TGI [21]: > 100000 nM
GI50 [22]: 3040 nM
TGI [22]: > 100000 nM
GI50 [23]: 1590 nM
TGI [23]: 10100 nM
GI50 [24]: 532 nM
TGI [24]: 39100 nM
GI50 [25]: 236 nM
TGI [25]: 614 nM
GI50 [26]: 653 nM
TGI [26]: > 100000 nM
GI50 [27]: 396 nM
TGI [27]: 1620 nM
GI50 [28]: 488 nM
TGI [28]: 23000 nM
GI50 [29]: 398 nM
TGI [29]: > 100000 nM
GI50 [30]: 16900 nM
TGI [30]: 75400 nM
GI50 [31]: 382 nM
TGI [31]: 1260 nM
GI50 [32]: 510 nM
TGI [32]: > 100000 nM
GI50 [33]: 454 nM
TGI [33]: 2230 nM
GI50 [34]: 6010 nM
TGI [34]: > 100000 nM
GI50 [35]: 487 nM
TGI [35]: > 100000 nM
GI50 [36]: 240 nM
TGI [36]: 502 nM
GI50 [37]: 767 nM
TGI [37]: > 100000 nM
GI50 [38]: 305 nM
TGI [38]: > 100000 nM
GI50 [39]: 902 nM
TGI [39]: > 100000 nM
GI50 [40]: 285 nM
TGI [40]: 645 nM
GI50 [41]: 675 nM
TGI [41]: 3060 nM
GI50 [42]: 304 nM
TGI [42]: 768 nM
GI50 [43]: 411 nM
TGI [43]: > 100000 nM
GI50 [44]: 407 nM
TGI [44]: 15500 nM
GI50 [45]: 778 nM
TGI [45]: > 100000 nM
GI50 [46]: 5930 nM
TGI [46]: > 100000 nM
GI50 [47]: 534 nM
TGI [47]: > 100000 nM
GI50 [48]: 276 nM
TGI [48]: 595 nM
GI50 [49]: 561 nM
TGI [49]: 82900 nM
GI50 [50]: 825 nM
TGI [50]: > 100000 nM
GI50 [51]: 738 nM
TGI [51]: > 100000 nM
GI50 [52]: 712 nM
TGI [52]: > 100000 nM
GI50 [53]: 376 nM
TGI [53]: 1090 nM
GI50 [54]: 289 nM
TGI [54]: 1250 nM
GI50 [55]: 369 nM
TGI [55]: 5800 nM
GI50 [56]: 182 nM
TGI [56]: 349 nM
